Experimental data as given in patent US9023789B2, “Amylin analogs and pharmaceutical compositions thereof” (Novo Nordisk A/S, priority 2012, dated 2015).
pIC50: −log10 of the molar value. Numbered stars: 1 amine (or outer) side, 2 acyl side, 3 side chain; on linkers, the order of the positions; unused ones are H or OH. Bridge positions count the residues as written; N and C are the ends. Peptide text beside a SMILES is read from it. * marks the point of attachment. C20 diacid = O=C(O)CCCCCCCCCCCCCCCCCCC(=O)*; γGlu = O=C(O)[C@H](CCC(=O)[*:2])N[*:1]

How the values were obtained:
[1] = ASSAY (III) ThT fibrillation assay for physical stability; assay type: physicochemical
In short: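 Physical stability scored by ThT fluorescence (444 nm excitation, 485 nm emission) tracked every 20 min during 37 °C incubation with 960 rpm shaking, ThT at 1 μM final. Values are replicate means with SD at chosen times; HPLC against pramlintide standard gives initial and post-assay soluble concentrations.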

[2] = target: T1, rat amylin receptor (rat calcitonin receptor + rat RAMP 3) (Rattus norvegicus, UniProt P32214+Q9JJ73); test: ASSAY (VI) binding to the rat amylin receptor; conditions: for pIC50: binding to rat amylin receptor, read-out: rAmylin-R bind IC50
T1 construct: expressed in transfected cells; host or cells: BHK tk'ts 13 (transient, FuGENE 6), membranes
T1 sequence (P32214 25-479 isoform P32214-2 limits assumed): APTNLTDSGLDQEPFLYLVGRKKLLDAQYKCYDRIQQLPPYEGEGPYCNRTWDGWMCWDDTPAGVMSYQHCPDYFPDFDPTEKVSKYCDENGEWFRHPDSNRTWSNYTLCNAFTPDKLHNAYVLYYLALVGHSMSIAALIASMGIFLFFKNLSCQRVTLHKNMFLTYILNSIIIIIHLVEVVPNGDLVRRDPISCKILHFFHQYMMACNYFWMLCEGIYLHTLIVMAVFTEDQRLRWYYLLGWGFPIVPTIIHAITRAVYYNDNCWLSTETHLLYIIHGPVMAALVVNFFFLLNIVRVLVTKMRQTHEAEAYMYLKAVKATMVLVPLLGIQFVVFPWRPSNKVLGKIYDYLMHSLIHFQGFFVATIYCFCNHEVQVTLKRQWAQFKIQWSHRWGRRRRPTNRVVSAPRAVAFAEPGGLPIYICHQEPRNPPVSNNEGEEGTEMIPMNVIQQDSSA
T1 sequence (Q9JJ73 23-147 partner): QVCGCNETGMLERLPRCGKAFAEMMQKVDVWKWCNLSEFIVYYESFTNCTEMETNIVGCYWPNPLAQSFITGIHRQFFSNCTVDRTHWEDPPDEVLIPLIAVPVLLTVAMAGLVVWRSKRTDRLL
In short: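 The cell-membrane assay assessed binding at the rat amylin receptor. BHK tk′ts 13 cells were transfected transiently with rat calcitonin receptor, with FuGENE® 6 (Roche) as the transfection reagent, used per the manufacturer's recommendations. Approximately 48 hours after transfection the cells were harvested, and membranes were prepared for measuring binding.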

[3] = Table 7, rat binding selectivity, rCTR IC50 / rAmylin-R IC50
[4] = Table 7a (preferred compounds), rat binding selectivity, rCTR IC50 / rAmylin-R IC50
[5] = ratio of rCTR bind IC50 to rAmylin-R bind IC50

Compound	ThT pH 4.0 lag time (h) [1] [h]	pIC50 ([2]; Table 7)	Ratio rCT/rAmylin binding [2, 3]	Ratio rCT/rAmylin binding [2, 4]	Ratio rCT/rAmylin binding [2, 5]
CC[C@H](C)[C@H](NC(=O)[C@H](C)NC(=O)CNC(=O)[C@H](Cc1ccccc1)NC(=O)[C@H](CC(N)=O)NC(=O)[C@@H]1CCCN1C(=O)[C@H](CO)NC(=O)[C@H](CO)NC(=O)[C@H](Cc1c[nH]cn1)NC(=O)[C@H](CCCNC(=N)N)NC(=O)[C@H](CC(C)C)NC(=O)[C@H](Cc1ccccc1)NC(=O)[C@H](CCC(=O)O)NC(=O)[C@H](C)NC(=O)[C@H](CC(C)C)NC(=O)[C@H](CCCNC(=N)N)NC(=O)[C@H](CCC(N)=O)NC(=O)[C@@H](NC(=O)[C@H](C)NC(=O)[C@@H]1CSSC[C@H](NC(=O)[C@H](CCCCN)NC(=O)CC[C@H](NC(=O)CCCCCCCCCCCCCCCCCCC(=O)O)C(=O)O)C(=O)N[C@@H](CC(N)=O)C(=O)N[C@@H]([C@@H](C)O)C(=O)N[C@@H](C)C(=O)N[C@@H]([C@@H](C)O)C(=O)N1)[C@@H](C)O)C(=O)N1CCC[C@H]1C(=O)N[C@@H](CO)C(=O)N[C@@H](CO)C(=O)N[C@H](C(=O)N[C@@H](CC(N)=O)C(=O)N[C@H](C(=O)NCC(=O)N[C@@H](CO)C(=O)N[C@@H](CCCNC(=N)N)C(=O)N[C@H](C(=O)N[C@@H](Cc1ccc(O)cc1)C(N)=O)[C@@H](C)O)C(C)C)[C@@H](C)O [Example 16] ({C20 diacid-γGlu}-KCNTATCATQRLAEFLRHSSPNFGAIPSSTNVGSRTY-NH2; disulfide 2-7)	45	8.92	45.6	45.6	45.6
CC[C@H](C)[C@H](NC(=O)[C@H](C)NC(=O)CNC(=O)[C@H](Cc1ccccc1)NC(=O)[C@H](CC(N)=O)NC(=O)[C@@H]1CCCN1C(=O)[C@H](CO)NC(=O)[C@H](CO)NC(=O)[C@H](Cc1c[nH]cn1)NC(=O)[C@H](CCCNC(=N)N)NC(=O)[C@H](CC(C)C)NC(=O)[C@H](Cc1ccccc1)NC(=O)[C@H](CCC(=O)O)NC(=O)[C@H](C)NC(=O)[C@H](CC(C)C)NC(=O)[C@H](CCCNC(=N)N)NC(=O)[C@H](CCC(N)=O)NC(=O)[C@@H](NC(=O)[C@H](C)NC(=O)[C@@H]1CSSC[C@H](NC(=O)[C@H](CCCCN)NC(=O)CC[C@H](NC(=O)CCCCCCCCCCCCCCCCCCC(=O)O)C(=O)O)C(=O)N[C@@H](CC(N)=O)C(=O)N[C@@H]([C@@H](C)O)C(=O)N[C@@H](C)C(=O)N[C@@H]([C@@H](C)O)C(=O)N1)[C@@H](C)O)C(=O)N1CCC[C@H]1C(=O)N[C@@H](CO)C(=O)N[C@@H](CO)C(=O)N[C@H](C(=O)N[C@@H](CC(N)=O)C(=O)N[C@H](C(=O)NCC(=O)N[C@@H](Cc1c[nH]cn1)C(=O)N[C@@H](CC(N)=O)C(=O)N[C@H](C(=O)N[C@@H](Cc1ccc(O)cc1)C(N)=O)[C@@H](C)O)C(C)C)[C@@H](C)O [Example 17] ({C20 diacid-γGlu}-KCNTATCATQRLAEFLRHSSPNFGAIPSSTNVGHNTY-NH2; disulfide 2-7 (inferred))	45	8.57	35.9	35.9	35.9
